Experimental data: patent US9408852B2, “Method of lowering serum uric acid levels with (S)-tofisopam” (PHARMOS CORPORATION, priority 2011, dated 2016)

Tested on: serum uric acid
Experiment: Serum uric acid in healthy men and postmenopausal women, single-dose and multiple-dose phases (Example 3)
Type: in vivo, human
Excerpt: In another study in healthy men and postmenopausal women, the trial period included a single-dose phase (Day 1) and a multiple-dose phase (Days 2-6). […] With multiple-dose oral administration (twice a day (BID) or three times a day (TID) on days 2-6), this decrease was more pronounced.

CC[C@@H]1C(C)=NN=C(c2ccc(OC)c(OC)c2)c2cc(OC)c(OC)cc21 [(S)-tofisopam]
Change from Baseline serum uric acid (50 mg TID (single dose Day 1), Postmenopausal women, Day 2 AM): −27% | Change from Baseline serum uric acid (50 mg TID (single dose Day 1), Postmenopausal women, Day 4 AM): −58% | Change from Baseline serum uric acid (50 mg TID (single dose Day 1), Postmenopausal women, Day 7 AM): −65% | Change from Baseline serum uric acid (50 mg TID (single dose Day 1), Young men, Day 2 AM): −19% | Change from Baseline serum uric acid (50 mg TID (single dose Day 1), Young men, Day 4 AM): −63% | Change from Baseline serum uric acid (50 mg TID (single dose Day 1), Young men, Day 7 AM): −59% | Change from Baseline serum uric acid (150 mg BID (single dose Day 1), Postmenopausal women, Day 2 AM): −48% | Change from Baseline serum uric acid (150 mg BID (single dose Day 1), Postmenopausal women, Day 4 AM): −76% | Change from Baseline serum uric acid (150 mg BID (single dose Day 1), Postmenopausal women, Day 7 AM): −71% | Change from Baseline serum uric acid (150 mg BID (single dose Day 1), Young men, Day 2 AM): −31% | Change from Baseline serum uric acid (150 mg BID (single dose Day 1), Young men, Day 4 AM): −72% | Change from Baseline serum uric acid (150 mg BID (single dose Day 1), Young men, Day 7 AM): −72% | Uric acid levels after a single oral dose (24 hours after single dose of 50 mg or 150 mg (Day 1), men and women): Decreased | Reductions from baseline in uric acid (by the morning of Day 4, male and female subjects, 50 mg TID or 150 mg BID): > 50%
